Consider eleven molecules from patent US8791050B2, “Herbicidal compositions” (priority 1998, dated 2014).

Format in all cases: in vivo
Data set [1] has as its system Echinochloa colona (ECHCO). In words: Herbicidal effect in rice, field trial, Echinochloa colona. To be noted: post-emergence 2-4-leaf stage. How it is done: (§1) The herbicidal efficacy of the active compounds or active compound mixtures was scored visually using the treated plots in comparison to untreated control plots. The damage and development of all above-ground parts of the plants were recorded. Scoring was carried out using a percentage scale (100% effect=all plants killed; 50% effect=50% of the plants and the green parts of the plants killed; 0% effect=no noticeable effect=like control plot). The scores of in each case 4 plots were averaged.
(§2) If the observed activity values already exceed the formal sum of the values for the trials with the individual applications, they also exceed the expected value according to Colby which is calculated using the following formula and which is likewise considered to be an indication of synergism (cf. S. R. Colby; in Weeds 15 (1967) pp. 20 to 22): E=A+B−(A·B/100)
(§3) Crop plants were grown outdoors on plots under natural outdoor conditions, and seeds or rhizome pieces of typical harmful plants were laid out or the natural weed growth was utilized. Treatment with the compositions according to the invention was carried out after the harmful plants had emerged and the crop plants were, generally, at the 2- to 4-leaf stage; in some cases (as stated), application of individual active compounds or active compound combinations was carried out pre-emergence (cf. Example 1) or as a sequential treatment partly pre-emergence and/or post-emergence.
(§4) After the application, for example 2, 4, 6 and 8 weeks after the application, the effect of the preparations was scored visually by comparison with untreated controls (cf. scoring in Example 1). In the field trial as well, the compositions according to the invention have synergistic herbicidal activity against a broad spectrum of economically important weed grasses and broad-leaved weeds. […] Moreover, the effects in essential phases of the scoring period were above the expected values according to Colby (cf. scoring in Example 1), also indicating synergism. In contrast, the crop plants were, as a consequence of the treatments with the herbicidal compositions, damaged only to a small degree, if at all.

Another data set has as its system Eleusine indica (ELEIN). The data set is described as follows: Herbicidal effect in rice, field trial, Eleusine indica. The following applies: Table 4 field trial, post-emergence 2-4-leaf stage, scoring 28 days after application. How it is done:
as §1, §2, §3
(§5) After the application, for example 2, 4, 6 and 8 weeks after the application, the effect of the preparations was scored visually by comparison with untreated controls (cf. scoring in Example 1). In the field trial as well, the compositions according to the invention have synergistic herbicidal activity against a broad spectrum of economically important weed grasses and broad-leaved weeds. […] Moreover, the effects in essential phases of the scoring period were above the expected values according to Colby (cf. scoring in Example 1), also indicating synergism. […]

The test system of data set [2] is rice. The data set is described as follows: Selectivity: damage to rice, greenhouse trial. To be noted: scoring 20 days after application.
Data set [3] has as its system rice. The data set is described as follows: Selectivity: damage to rice, field trial. How it is done: The damage and development of all above-ground parts of the plants were recorded. […] The scores of in each case 4 plots were averaged.
Crop plants were grown outdoors on plots under natural outdoor conditions, and seeds or rhizome pieces of typical harmful plants were laid out or the natural weed growth was utilized.

Data set [4] has as its system Echinochloa crus-galli (ECHCG). The data set is described as follows: Herbicidal effect in rice, field trial, Echinochloa crus-galli. How it is done:
as §1, §2, §3, §4

The subject of data set [5] is Echinochloa crus-galli (ECHCG). The data set is described as follows: Herbicidal effect in rice, greenhouse trial, Echinochloa crus-galli. To be noted: Table 6 greenhouse trial, post-emergence 3-4-leaf stage, scoring 20 days after application. As for the experimental part:
as §1, §2
(§6) Seeds or rhizome pieces of monocotyledonous and dicotyledonous weeds are placed in sandy loam soil in pots, covered with soil and grown in a greenhouse under good growth conditions (temperature, atmospheric humidity, water supply). Three weeks after sowing, the test plants are treated at the three-leaf stage with the compositions according to the invention. The compositions according to the invention, formulated as wettable powders or as emulsion concentrates, are sprayed, at various dosages, onto the green parts of the plant at an application rate of 600 to 800 l of water/ha (converted). After the test plants have been in the greenhouse for about 3 to 4 weeks under ideal growth conditions, the effect of the preparations is scored visually by comparison with untreated controls. The compositions according to the invention also have a good herbicidal post-emergence activity against a broad spectrum of economically important weed grasses and weeds.
(§7) Frequently, activities of the combinations according to the invention are observed which exceed the formal sum of the activities when the herbicides are applied individually.

Data set [6] concerns Sagittaria pygmaea (SAGPY). In words: Herbicidal effect in rice, greenhouse trial, Sagittaria pygmaea. To be noted: Table 5 greenhouse trial, post-emergence 1-2-leaf stage, scoring 20 days after application. As for the experimental part: as §1, §2
as §6, with “Three weeks after sowing, the test plants are treated at the three-leaf stage with the compositions according to the invention.” left out
as §7

Data set [7] concerns Amaranthus retroflexus (AMARE). In words: Herbicidal effect in rice, field trial, Amaranthus retroflexus. To be noted: Table 9 field trial, post-emergence 2-4-leaf stage, scoring 28 days after application, 50 g of AS/ha. How it is done: as §1, §2, §3, §5
The next data set has as its system Cyperus iria (CYPIR). In words: Herbicidal effect in rice, field trial, Cyperus iria. The following applies: Table 14 field trial, post-emergence 3-leaf stage, scoring 42 days after application. How it is done:
as §1, §2, §3, §5

The mark [8] stands for this setting: Table 6 greenhouse trial, post-emergence 3-4-leaf stage, 18 g of AS/ha.
Setting [9] is: Table 6 greenhouse trial, post-emergence 3-4-leaf stage, 37 g of AS/ha.
Where [10] appears, read: Table 6 greenhouse trial, post-emergence 3-4-leaf stage, 75 g of AS/ha.
Where [11] appears, read: Table 12 field trial, post-emergence 3-leaf stage, scoring 12 days after application, 20 g of AS/ha.
The mark [12] stands for this setting: Table 12 field trial, post-emergence 3-leaf stage, scoring 12 days after application, 40 g of AS/ha.
Where [13] appears, read: Table 12 field trial, post-emergence 3-leaf stage, scoring 12 days after application, 80 g of AS/ha.
[14] abbreviates: Table 12 field trial, post-emergence 3-leaf stage, scoring 12 days after application, 1250 g of AS/ha.
Where [15] appears, read: Table 12 field trial, post-emergence 3-leaf stage, scoring 12 days after application, 2500 g of AS/ha.
[16] abbreviates: Table 12 field trial, post-emergence 3-leaf stage, scoring 12 days after application, 5000 g of AS/ha.
Setting [17] is: Table 13 field trial, post-emergence 1-2-leaf stage, scoring 28 days after application, 37.5 g of AS/ha.

Take `CCOC(=O)[C@@H](C)Oc1ccc(Oc2nc3ccc(Cl)cc3o2)cc1` [(A1.1), fenoxaprop-P-ethyl]: the “Herbicidal effect (in %) against ECHCO” value in data set [1] (Table 2 field trial, scoring 21 days after application, 45 g of AS/ha) is 51%; in data set [1] (Table 3 field trial, scoring 28 days after application, 45 g of AS/ha) it was 83%. In the data set on Eleusine indica (ELEIN) (45 g of AS/ha), the “Herbicidal effect (in %) against ELEIN” value stood at 80%. For the same molecule, the “Damage (in %) to rice” value with rice [2] (Table 5 greenhouse trial, post-emergence 1-2-leaf stage, 37.5 g of AS/ha) was 0%; with rice [2] (Table 5 greenhouse trial, post-emergence 1-2-leaf stage, 75 g of AS/ha), 8%; with rice [2] (setting [8]) it was 0%; in the data set on rice [2] (setting [9]) it was 0%; in the data set on rice [2] (setting [10]) it was 3%; with rice [3] (Table 2 field trial, post-emergence 2-4-leaf stage, scoring 21 days after application, 45 g of AS/ha), 0%. In addition, the “Damage (in %) to rice” value in the data set with rice [3] (Table 3 field trial, post-emergence 2-4-leaf stage, scoring 28 days after application, 45 g of AS/ha) is recorded as 21%; in the data set on rice [3] (Table 4 field trial, post-emergence 2-4-leaf stage, scoring 28 days after application, 45 g of AS/ha) it was 21%; with rice [3] (setting [11]) it was 0%; with rice [3] (setting [12]) it was 0%; with rice [3] (setting [13]), 5%. Besides, the “Herbicidal effect (in %) against ECHCG” value in data set [4] (setting [11]) worked out at 80%; in data set [4] (setting [12]) it was 95%; in data set [4] (setting [13]), 97%; in [5] (18 g of AS/ha) it was 15%; in data set [5] (37 g of AS/ha) it was 40%; in [5] (75 g of AS/ha) it was 82%. The “Herbicidal effect (in %) against SAGPY” value in [6] (37.5 g of AS/ha) and in data set [6] (75 g of AS/ha) was 0% each time.
As to `CCC(=O)Nc1ccc(Cl)c(Cl)c1` [(B1.7), propanil], the “Damage (in %) to rice” value was 0% with rice [3] (setting [14]), 5% in the data set on rice [3] (setting [15]) and 5% in the data set on rice [3] (setting [16]). The figures for the “Herbicidal effect (in %) against ECHCG” value in data set [4] (setting [14]), in [4] (setting [15]) and in [4] (setting [16]) were 0%, 10% and 30%, respectively.
On to `CCN(C(=O)n1nnn(-c2ccccc2Cl)c1=O)C1CCCCC1` [(B1.15), fentrazamid], for which the “Damage (in %) to rice” value in the data set with rice [2] (Table 5 greenhouse trial, post-emergence 1-2-leaf stage, 25 g of AS/ha) turned out to be 0%; in the data set on rice [2] (Table 5 greenhouse trial, post-emergence 1-2-leaf stage, 50 g of AS/ha), 0%; with rice [2] (Table 5 greenhouse trial, post-emergence 1-2-leaf stage, 100 g of AS/ha), 0%. Moreover, the results for the “Herbicidal effect (in %) against SAGPY” value in [6] (25 g of AS/ha), in data set [6] (50 g of AS/ha) and in data set [6] (100 g of AS/ha) were 0%, 40% and 80%, respectively.
As to `CCC/C(=N\OCC(C)Oc1ccc(Cl)cc1)C1=C(O)CC(C2CCCSC2)CC1=O` (stereo not drawn) [(B1.31), clefoxidim], the “Damage (in %) to rice” value in the data set on rice [2] (setting [8]), in the data set with rice [2] (setting [9]) and in the data set on rice [2] (setting [10]) was 0% each time. For the same molecule, the results for the “Herbicidal effect (in %) against ECHCG” value in [5] (18 g of AS/ha), in data set [5] (37 g of AS/ha) and in data set [5] (75 g of AS/ha) were 0%, 10% and 83%, respectively.
Take `COc1nc(NC(=O)NS(=O)(=O)c2ccccc2C(F)(F)F)nc(C(F)(F)F)n1` [(B2.4), tritosulfuron]: the “Damage (in %) to rice” value in the data set with rice [3] (setting [17]) is listed as 0%. Further, in [4] (setting [17]), the “Herbicidal effect (in %) against ECHCG” value is listed as 0%.
On to `O=C(O)COc1nc(Cl)c(Cl)cc1Cl` [(B3.1), triclopyr], for which the “Herbicidal effect (in %) against AMARE” value in [7] is listed as 66%. Besides, the “Damage (in %) to rice” value in the data set on rice [3] (Table 9 field trial, post-emergence 2-4-leaf stage, scoring 28 days after application, 50 g of AS/ha) was found to be 18%.
On to `CCS(=O)(=O)Oc1ccc2c(c1)C(C)(C)CO2` [(B3.2), benfuresate], for which, in [1] (Table 2 field trial, scoring 21 days after application, 400 g of AS/ha), the “Herbicidal effect (in %) against ECHCO” value is 0%. Also, in the data set with rice [3] (in vivo), the “Damage (in %) to rice” value is reported as 0%.
For the molecule `CC1(C)CON(Cc2ccccc2Cl)C1=O` [(B4.2), clomazone], the “Herbicidal effect (in %) against CYPIR” value in the data set on Cyperus iria (CYPIR) (300 g of AS/ha) is reported as 30%. Moreover, the “Damage (in %) to rice” value in the data set with rice [3] (in vivo) was 0%.
On to `CC(C)Oc1cc(-n2nc(C(C)(C)C)oc2=O)c(Cl)cc1Cl` [(B4.8), oxadiazon], for which the “Herbicidal effect (in %) against CYPIR” value in the data set on Cyperus iria (CYPIR) (250 g of AS/ha) is 75%. The “Damage (in %) to rice” value in the data set with rice [3] (in vivo) is 0%.
As to `CC1=C(c2ccccc2)C(=O)N(C(C)(C)c2cc(Cl)cc(Cl)c2)CO1` [(B4.26), oxaziclomefone], the “Herbicidal effect (in %) against ELEIN” value with Eleusine indica (ELEIN) (30 g of AS/ha) is reported as 0%; with Eleusine indica (ELEIN) (60 g of AS/ha), 37%. In addition, the “Damage (in %) to rice” value worked out at 15% in the data set with rice [3] (Table 4 field trial, post-emergence 2-4-leaf stage, scoring 28 days after application, 30 g of AS/ha) and 19% with rice [3] (Table 4 field trial, post-emergence 2-4-leaf stage, scoring 28 days after application, 60 g of AS/ha).
As to oxadiargyl [(B4.9)], the “Herbicidal effect (in %) against ECHCO” value in data set [1] (Table 3 field trial, scoring 28 days after application, 25 g of AS/ha) stood at 33%; in [1] (Table 3 field trial, scoring 28 days after application, 50 g of AS/ha), 43%; in data set [1] (Table 3 field trial, scoring 28 days after application, 100 g of AS/ha), 48%.
